From the NIST ThermoML archive (doi:10.1016/j.jct.2019.02.011)

Assay: xn = mol fraction of the nth substance listed
Conditions: Liquid, Vibrating tube method

COC(=O)OC [dimethyl carbonate] + CCO
mass density [kg/m3]
Conditions	100 kPa	5000 kPa	10000 kPa	15000 kPa	20000 kPa	25000 kPa	30000 kPa	35000 kPa	40000 kPa
298.15 K, x1 = 0.0252	–	–	–	–	–	814.77	818.23	821.35	824.85
298.15 K, x1 = 0.0506	–	–	–	–	–	824.39	827.85	831.03	834.55
298.15 K, x1 = 0.0757	–	–	–	–	–	833.72	837.24	840.42	843.95
298.15 K, x1 = 0.1003	–	–	–	–	–	842.57	846.09	849.38	852.92
298.15 K, x1 = 0.1508	–	–	–	–	–	860.52	864.11	867.41	871.01
298.15 K, x1 = 0.2	–	–	–	–	–	877.33	880.97	884.34	887.93
298.15 K, x1 = 0.2547	–	–	–	–	–	895.44	899.14	902.52	906.18
298.15 K, x1 = 0.3002	–	–	–	–	–	910.03	913.74	917.13	920.8
298.15 K, x1 = 0.3498	–	–	–	–	–	925.47	929.2	932.65	936.29
298.15 K, x1 = 0.4	–	–	–	–	–	940.64	944.38	947.84	951.52
298.15 K, x1 = 0.449	–	–	–	–	–	954.89	958.68	962.16	965.81
298.15 K, x1 = 0.4996	–	–	–	–	–	969.11	972.91	976.39	980.05
298.15 K, x1 = 0.5507	–	–	–	–	979.03	982.99	986.8	990.35	994.01
298.15 K, x1 = 0.6005	–	–	–	–	992.03	996	999.82	1003.37	1006.99
298.15 K, x1 = 0.6455	–	–	–	–	1003.31	1007.29	1011.17	1014.73	1018.41
298.15 K, x1 = 0.6931	–	–	–	–	1014.9	1018.88	1022.77	1026.34	1030.03
298.15 K, x1 = 0.7502	–	–	–	–	1028.23	1032.23	1036.12	1039.75	1043.4
298.15 K, x1 = 0.8009	–	–	–	–	1039.69	1043.7	1047.6	1051.24	1054.89
298.15 K, x1 = 0.8505	–	–	–	–	1050.49	1054.48	1058.39	1062.04	1065.71
298.15 K, x1 = 0.9008	–	–	–	–	1061.05	1065.07	1068.99	1072.64	1076.29
298.15 K, x1 = 0.9255	–	–	–	–	1066.12	1070.15	1074.07	1077.73	1081.38
298.15 K, x1 = 0.9477	–	–	–	–	1070.6	1074.63	1078.55	1082.21	1085.85
298.15 K, x1 = 0.9735	–	–	–	–	1075.75	1079.76	1083.68	1087.3	1090.94
298.15 K, x1 = 1	–	–	–	–	1080.9	1084.89	1088.82	1092.44	1096.04
303.15 K, x1 = 0.0252	790.52	794.85	799.09	803.19	807.07	810.85	814.45	817.99	821.19
303.15 K, x1 = 0.0506	799.8	804.24	808.54	812.68	816.57	820.4	824.05	827.65	830.86
303.15 K, x1 = 0.0757	808.95	813.38	817.69	821.83	825.78	829.67	833.32	836.92	840.19
303.15 K, x1 = 0.1003	817.66	822.15	826.46	830.66	834.61	838.5	842.15	845.76	849.04
303.15 K, x1 = 0.1508	835.2	839.75	844.12	848.37	852.39	856.28	859.99	863.66	867.01
303.15 K, x1 = 0.2	851.75	856.29	860.68	864.98	869.06	873.01	876.77	880.45	883.83
303.15 K, x1 = 0.2547	869.58	874.18	878.59	882.88	886.98	890.99	894.76	898.44	901.89
303.15 K, x1 = 0.3002	883.92	888.57	893.03	897.33	901.44	905.46	909.28	912.97	916.44
303.15 K, x1 = 0.3498	899.15	903.81	908.28	912.64	916.76	920.83	924.6	928.31	931.85
303.15 K, x1 = 0.4	914.01	918.72	923.21	927.61	931.75	935.83	939.65	943.37	946.93
303.15 K, x1 = 0.449	928.1	932.82	937.32	941.72	945.87	949.95	953.78	957.5	961.08
303.15 K, x1 = 0.4996	942.11	946.83	951.34	955.75	959.95	964.05	967.88	971.61	975.21
303.15 K, x1 = 0.5507	955.78	960.51	965.03	969.44	973.66	977.76	981.64	985.38	989
303.15 K, x1 = 0.6005	968.59	973.37	977.9	982.31	986.54	990.65	994.54	998.28	1001.97
303.15 K, x1 = 0.6455	979.73	984.57	989.11	993.57	997.8	1001.97	1005.86	1009.61	1013.31
303.15 K, x1 = 0.6931	991.23	996.02	1000.62	1005.08	1009.33	1013.44	1017.34	1021.1	1024.81
303.15 K, x1 = 0.7502	1004.42	1009.26	1013.82	1018.28	1022.54	1026.71	1030.61	1034.38	1038.11
303.15 K, x1 = 0.8009	1015.74	1020.59	1025.15	1029.62	1033.88	1038.07	1041.97	1045.74	1049.49
303.15 K, x1 = 0.8505	1026.43	1031.28	1035.85	1040.32	1044.59	1048.83	1052.73	1056.47	1060.22
303.15 K, x1 = 0.9008	1036.88	1041.74	1046.31	1050.81	1055.12	1059.33	1063.26	1067	1070.77
303.15 K, x1 = 0.9255	1041.88	1046.76	1051.32	1055.83	1060.15	1064.37	1068.3	1072.05	1075.83
303.15 K, x1 = 0.9477	1046.34	1051.21	1055.79	1060.28	1064.6	1068.85	1072.75	1076.5	1080.28
303.15 K, x1 = 0.9735	1051.45	1056.32	1060.89	1065.37	1069.67	1073.92	1077.83	1081.57	1085.37
303.15 K, x1 = 1	1056.61	1061.47	1066.02	1070.49	1074.79	1078.99	1082.9	1086.6	1090.4
308.15 K, x1 = 0.0252	785.78	790.2	794.7	798.95	803.01	806.85	810.55	814.13	817.65
308.15 K, x1 = 0.0506	795.01	799.48	804.03	808.34	812.45	816.29	820.04	823.67	827.2
308.15 K, x1 = 0.0757	804.1	808.57	813.12	817.43	821.55	825.44	829.2	832.83	836.41
308.15 K, x1 = 0.1003	812.76	817.27	821.84	826.15	830.31	834.21	837.98	841.6	845.19
308.15 K, x1 = 0.1508	830.19	834.75	839.38	843.74	847.91	851.87	855.69	859.36	862.96
308.15 K, x1 = 0.2	846.57	851.18	855.82	860.24	864.46	868.48	872.26	875.98	879.58
308.15 K, x1 = 0.2547	864.3	868.96	873.61	878.08	882.31	886.33	890.22	893.94	897.55
308.15 K, x1 = 0.3002	878.53	883.23	887.94	892.42	896.65	900.73	904.63	908.34	911.96
308.15 K, x1 = 0.3498	893.6	898.3	903.03	907.51	911.79	915.88	919.79	923.55	927.17
308.15 K, x1 = 0.4	908.35	913.1	917.89	922.37	926.66	930.75	934.72	938.43	942.06
308.15 K, x1 = 0.449	922.34	927.13	931.93	936.46	940.76	944.91	948.88	952.59	956.23
308.15 K, x1 = 0.4996	936.23	941.03	945.84	950.37	954.72	958.88	962.91	966.61	970.26
308.15 K, x1 = 0.5507	949.8	954.65	959.47	964	968.36	972.52	976.56	980.26	983.92
308.15 K, x1 = 0.6005	962.5	967.34	972.17	976.76	981.12	985.34	989.34	993.09	996.75
308.15 K, x1 = 0.6455	973.59	978.43	983.27	987.86	992.27	996.5	1000.55	1004.29	1007.96
308.15 K, x1 = 0.6931	984.98	989.86	994.71	999.31	1003.72	1007.95	1012.02	1015.76	1019.43
308.15 K, x1 = 0.7502	998.06	1002.99	1007.85	1012.45	1016.86	1021.1	1025.17	1028.91	1032.59
308.15 K, x1 = 0.8009	1009.32	1014.25	1019.12	1023.72	1028.14	1032.39	1036.46	1040.2	1043.88
308.15 K, x1 = 0.8505	1019.95	1024.88	1029.76	1034.36	1038.78	1043.04	1047.12	1050.86	1054.54
308.15 K, x1 = 0.9008	1030.34	1035.27	1040.16	1044.76	1049.19	1053.46	1057.58	1061.29	1064.96
308.15 K, x1 = 0.9255	1035.32	1040.27	1045.13	1049.75	1054.19	1058.45	1062.57	1066.29	1069.95
308.15 K, x1 = 0.9477	1039.72	1044.68	1049.54	1054.15	1058.61	1062.87	1066.99	1070.7	1074.34
308.15 K, x1 = 0.9735	1044.8	1049.73	1054.59	1059.21	1063.67	1067.93	1072.03	1075.71	1079.36
308.15 K, x1 = 1	1049.91	1054.84	1059.69	1064.3	1068.73	1073	1077.1	1080.78	1084.38
